The results in this text go back to patent US20230276831A1, “Food/Beverage Article” (Kikkoman Corporation, priority 2020, published 2023).

Assay type in all cases: cell-based
The subject of assay [1] is Lactobacillus rennini DSM 20253. Description: Antimicrobial action of licoricidin in liquid seasoning (1), lactic acid bacteria A. The following applies: conclusion of Test Example 4; various salt concentration and various alcohol concentrations; lactic acid bacteria A to D. Here is the method: Commercially available whole soybean soy sauce (produced by Kikkoman Corporation) was electrodialyzed and then concentrated under reduced pressure to obtain soy sauce at a salt concentration of 0% (w/v) and an alcohol concentration of 0% (v/v). Then, salt and/or alcohol was added to the above-mentioned obtained soy sauce, and the mixture was heat-treated to produce soy sauces at salt concentrations and alcohol concentrations shown in the following Table 5. The pHs of the soy sauces were 4.9 to 5.0. […]
Licoricidin (produced by ChemFaces) was added to each of the liquid seasonings produced in the above-mentioned (1) to concentrations of 1 ppm, 5 ppm, 10 ppm, 25 ppm, and 50 ppm. Lactic acid bacteria described in the following Table 9 were then added to 10^6 to 10^7 cells/mL and cultured at 30° C. for 7 days. After the culture, the number of lactic acid bacteria was measured using the GAM agar medium “Nissui”. Liquid seasoning to which licoricidin was not added was used as a control group, and the antimicrobial activity was evaluated in comparison with the number of lactic acid bacteria in the control group. The evaluation was performed using the criterion shown below. […]

Assay [2] concerns Lactobacillus rennini (DSM 20253). Description: Antimicrobial action of oxygen-containing heterocyclic compounds in soy sauce (Test Example 6). The following applies: Loigolactobacillus rennini, DSM20253, 168 h, salt 4% (w/v), alcohol 5% (v/v). Here is the method:
Commercially available whole soybean soy sauce (produced by Kikkoman Corporation) was electrodialyzed and then concentrated under reduced pressure to produce soy sauce at a salt concentration of 0% (w/v) and an alcohol concentration of 0% (v/v). Then, salt and/or alcohol was added to the above-mentioned obtained soy sauce, and the mixture was then heat-treated to produce soy sauce at a salt concentration of 4% (w/v) and an alcohol concentration of 5% (v/v).
The test substance described in Table 20 was added to the above-mentioned produced soy sauce to concentrations of 1 to 100 ppm. Lactic acid bacteria (Lactobacillus rennini (DSM 20253)) were then added to 10^6 to 10^7 cells/mL and cultured at 30° C. for 7 days. After the culture, the number of lactic acid bacteria was measured using the GAM agar medium “Nissui”. Soy sauce to which licoricidin was not added was used as a control group, and the antimicrobial activity was evaluated in comparison with the number of lactic acid bacteria in the control group. The evaluation was performed using the criterion shown below.
• A: The bacterial count decreases to less than 10% of the bacterial count of the control group. • B: The bacterial count decreases to 10% or more and less than 50% of the bacterial count of control group. • C: The bacterial count decreases to 50% or more and less than 100% of the bacterial count of the control group. • D: The bacterial count is the same as the bacterial count of the control group. • -: Not evaluated

Assay [3] has the same test system. The assay can be described thus: Antimicrobial action of licoricidin in liquid dressing, lightly-pickled vegetables and cooking vinegar (Test Example 9). The following applies: conclusion of Test Example 9. The source says:
Specifically, Koikuchi soy sauce (produced by Kikkoman Corporation), table vinegar, mirin, granulated sugar, kelp stock, and water were blended in amounts shown in the following Table 24, and the resulting mixture was heated to produce liquid dressing. The salt concentration of the obtained liquid dressing was 2.6% (w/v), the alcohol concentration was 0.8% (v/v), the pH was 4.2.
Specifically, Usukuchi soy sauce (produced by Kikkoman Corporation), table vinegar, corn syrup, isomerized sugar, salt, granulated sugar, sodium glutamate (MSG), lemon fruit juice, kelp stock, and water were blended in amounts shown in the following Table 25, and the mixture was heated to produce seasoning liquid for lightly-pickled vegetables. Chinese cabbages were fully soaked therein to produce lightly-pickled vegetables. […]
Licoricidin (produced by ChemFaces) was added to each of the above-mentioned produced liquid dressing, lightly-pickled vegetables, and cooking vinegar to concentrations of 1 ppm, 5 ppm, 10 ppm, 25 ppm, and 50 ppm. […] After the culture, the number of lactic acid bacteria was measured using the GAM agar medium “Nissui”. The liquid dressing, the lightly-pickled vegetables, and the cooking vinegar to which licoricidin was not added were used as respective control groups, and the antimicrobial activity was evaluated in comparison with the number of lactic acid bacteria in the control group. […]

Take `COc1c(CC=C(C)C)c(O)cc2c1C[C@H](c1ccc(O)c(CC=C(C)C)c1O)CO2` [Licoricidin, 4-[(R)-7-hydroxy-5-methoxy-6-(3-methyl-2-butenyl)chroman-3-yl]-2-(3-methyl-2-butenyl)-1,3-benzenediol]: the “Antimicrobial activity to various lactic acid bacteria” value in assay [1] is “exhibited antimicrobial activity”. In addition, the activity at 5 ppm in assay [2] (test substance 5 ppm) was less than 10%. The activity at 10 ppm in assay [2] (test substance 10 ppm) was less than 10%. In addition, the activity at 25 ppm in assay [2] (test substance 25 ppm) is less than 10%. In assay [2] (test substance 50 ppm), the activity at 50 ppm is less than 10%. In assay [3], the “Antimicrobial activity to lactic acid bacteria in the various liquid seasonings and the food” value is “exhibited antimicrobial activity”.
